System: MCF-7 cells
Experiment: Cell growth by Incucyte confluence, MCF-7
Format: cell-based, human
Details: 48–72 h; for reduction of proliferation of MCF-7 cells: 25 µM
Experimental: MCF-7 (DSMZ ACC 115) and PANC-1 (DSMZ ACC 783) cells were grown as recommended by the cell supplier at 5% CO2 and 37 °C in a humidified atmosphere. For determining cell growth, cells were seeded in 96-well culture plates (Corning, Corning, NY, USA) at a density of 10^4 cells/well. After 24 h, the compounds were added diluted in medium. Six wells per condition were used. Four images of each well were collected at 1 h intervals for 48–72 h. Two biological replicates were performed. Images were acquired using an Incucyte device (Sartorius/Essen biosciences). Cell confluence was calculated using the Incucyte software on the phase contrast images. The results are expressed as percent confluence per well normalised to the value with no compounds added.

Structure (SMILES)	reduction of proliferation of MCF-7 cells	inhibition of growth of MCF-7 cells (concentrations higher than 25 µM)
CCN(CC)CCOc1ccc(Nc2ccc(C(F)(F)F)cc2[N+](=O)[O-])cc1 [Compound 17a, N-(4-(2-(Diethylamino)ethoxy)phenyl)-2-nitro-4-(trifluoromethyl)aniline]	approximately half	approximately 50%
CN(C)CCOc1c(Br)cc(Nc2ccc(C(F)(F)F)cc2[N+](=O)[O-])cc1Br [Compound 18b, 3,5-Dibromo-4-(2-(dimethylamino)ethoxy)-N-(2-nitro-4-(trifluoromethyl)phenyl)aniline]	approximately half	–
